Patent EP0777471B1, “INHIBITION OF LEUKOTRIENE BIOSYNTHESIS WITH UREA DERIVATIVES” (MINNESOTA MINING AND MANUFACTURING COMPANY, priority 1994, dated 1996)
Where “and” joins values, the source holds several entries; their conditions need not be identical. Equal values may be shown once. Read-outs that look alike come from different tables or passages of the source.

Columns and labels:
[1] = test system: production of Leukotriene C4 in mouse peritoneal macrophages; test: In vitro mouse peritoneal macrophage Leukotriene C4 inhibition (zymosan-stimulated, LTC4 radioimmunoassay); type: cell-based; conditions: Zymosan 50 µg/mL
Experimental: The test method described below measures the ability of compounds to inhibit the production of Leukotriene C4 in mouse peritoneal macrophages.
Mice (female, CD-1, weighing 25 g) are euthanized by exposure to carbon dioxide. The peritoneal cavity is exposed by peeling back the abdominal skin. A 5 mL portion of media (M199 containing 1% fetal bovine serum, 100 units/mL of penicillin, 100 µg/mL of streptomycin, 20 units/mL of heparin and no glutamine) is injected into the exposed peritoneal cavity of each mouse. The lavage fluid is removed and pooled to yield approximately1 X 10^6 macrophages/mL. A 2 mL portion of lavage fluid is added to each well of a 24 well sterile multidish and the macrophages are allowed to adhere to the plate for 2 hours at 37°C in a 5% carbon dioxide atmosphere. The media is removed and each well is washed with 2 mL of phosphate buffered saline (PBS). A 1 mL portion of media, without heparin, but containing 5 µCi/mL of 3H-myoinositol is added to each well and the plates are incubated overnight at 37°C in a 5% carbon dioxide atmosphere. The media is removed and the cells are washed twice with 2 mL portions of PBS. A 1 mL portion of Puck's saline formulation A containing 1 mM calcium chloride, 1 mM magnesium chloride and 10 mM lithium chloride is added to each well. (The Puck's formulation is made first as a 10X solution which contains 4 g of potassium chloride, 80 g of sodium chloride and 10 g of glucose per liter. The Puck's saline formulation A is made using 10 mL of the 10X Puck's formulation, 0.47 mL of 7.5% sodium bicarbonate and 2 mL of 1M N-2-hydroxyethylpiperazine-N'-2-ethanesulfonic acid per 100 mL.)
Compounds are dissolved in dimethyl sulfoxide. Compounds are tested at concentrations of 10, 1 and 0.1 µM. Each concentration is tested in duplicate.
A 1 µL portion of compound solution or vehicle (DMSO) is added to each well and the plates are incubated for 15 minutes at 37°C in a 5% carbon dioxide atmosphere. Zymosan is then added to provide a final concentration of 50 µg/mL in each well and the plate is incubated for 1 to 2 hours at 37°C in a 5% carbon dioxide atmosphere.
Following incubation 200 µL portions of media are transferred to 12 X 75 mm tubes. The tubes are either assayed immediately or stored at -20°C until they can be assayed.
The media is assayed for the presence of Leukotriene C4 by radioimmunoassay which is performed according to the manufacturer's (Advanced Magnetics; Cambridge, MA) instructions.

[2] = test system: production of Leukotriene B4; test: Rat ex vivo Leukotriene B4 inhibition (oral dosing, blood challenged with A23187); type: in vivo, Rats; conditions: 50 mg/Kg, two hours post dose
Experimental: The test method described below measures the ability of a compound when administered orally to rats to inhibit the production of Leukotriene B4 in their blood which is drawn and challenged.
Rats (CD, male, non-fasted, 250 g) are lightly anesthetized with carbon dioxide and an approximately 0.75 mL sample of whole blood is obtained via cardiac puncture. The sample is dispensed into 12 X 75 mm polypropylene tubes containing 8-10 µL of 10,000 units/mL heparin, mixed and then maintained on ice. The rats are allowed to recover approximately one hour then dosed orally with compound dissolved in PEG 400 at a 5 mL/Kg volume. Five (5) rats are utilized per group. Two (2) hours post dose the rats are again anesthetized with carbon dioxide and the blood sampled again via cardiac puncture.
Duplicate 200 µL portions of blood are added to 1.0 mL polypropylene tubes. A 10 µL portion of 1mM A23187 Calcium Ionophore in dimethyl sulfoxide/Tris buffer is added to each tube. The tubes are gently vortexed then incubated in a 37°C water bath for 30 minutes. The tubes are then centrifuged at 4000 rpm for 10 minutes. 50 µL portions of plasma are transferred to 1.0 mL tubes containing 200 µL of methanol. The tubes are vortexed then placed in the freezer overnight.
The tubes are removed from the freezer then centrifuged at 4000 rpm for 10 minutes. […] portions of the methanol/plasma supernatant and 10 µL methanol dilutions of LTB4 standard curve are transferred to 96 well v-bottom microtiter plates. The plates are vacuum dried at 40°C. A 40 µL portion of LTB4 radioimmunoassay buffer is added to each well. The plate is bath sonicated for 5 minutes then assayed according to the manufacturer's (Advanced Magnetics; Cambridge, MA) instructions. Percent inhibition values are obtained by comparing the level of LTB4 in the post-dose samples to the level in the pre-dose samples according to the equation below. % Inhibition =((LTB4 pre-dose) - (LTB4 post-dose))/((LTB4 pre-dose))X 100 [formula]

[3] = test system: production of Leukotriene B4 (LTB4); test: Dog ex vivo Leukotriene B4 inhibition (oral dosing, blood challenged with calcium ionophore); type: in vivo, beagle dogs; conditions: each entry one dog, negative = stimulation of LTB4 production; for inhibition at 5 mg/kg: Canis lupus familiaris, po
Experimental: The test method described below measures the ability of a compound when administered orally to dogs to inhibit the production of Leukotriene B4 (LTB4) in their blood which is drawn and challenged at selected time points.
The test is conducted in beagle dogs (male and female; about 10 Kg). Prior to starting, the neck area of the beagle is shaved to allow easy access to the jugular vein. A 3-4 mL sample of blood is drawn from the jugular vein into a heparinized vacutainer. The dog is then dosed using a tube long enough to reach its stomach. The compound is dissolved in PEG 400 at a concentration such that the appropriate dose can be administered in approximately 5 mL. Immediately after the compound is given, a flush using 5 mL of vehicle is given to rinse the dosing tube. At selected time points following the dose, a 3-4 mL sample of blood is drawn.
The blood samples that have been drawn are challenged as soon as possible. A 0.5 mL portion of blood is aliquoted into 3 tubes (1 mL microtiter tubes). A 1 µL portion of 25 mM calcium ionophore in dimethyl sulfoxide is added to 2 of the tubes. A 1 µL portion of dimethyl sulfoxide is added to the third tube. The tubes are lightly mixed then placed in a 37°C water bath for 30 minutes. The tubes are centrifuged at 11,000 rpm for 3 minutes and the plasma supernatant is transferred to clean tubes. A 50 µL portion of this plasma is added to a I mL microtiter tube containing 200 µL of methanol. The tubes are placed in the freezer at -20°C for at least 1 hour then centrifuged at 2000 rpm for 10 minutes. A 10 µL portion of the methanol supematant is dried under vacuum at ambient temperature and then reconstituted in LTB4 buffer. The amount of LTB4 in the sample is determined by radioimmunoassay performed according to the manufacturer's (Advanced Magnetics; Cambridge, MA) instructions. Percent inhibition values are obtained by comparing the level of LTB4 in the post-dose sample to the level in the pre-dose sample according to the equation below. % Inhibition =((LTB4 predose) - (LTB4 postdose))/((LTB4 predose))X 100 [formula]
A number of the compounds that are useful in the practice of the method of the invention were tested. The results are shown in Table 15 below where each entry represents the results from one dog. A negative number indicates stimulation of LTB4 production. All compounds were tested at a dose of 5 mg/Kg.

SMILES | IC50 [1] [µM] | %I [2] | other results
CN(O)C(=O)Nc1ccc([N+](=O)[O-])cc1 [Compound 13, 1-hydroxy-1-methyl-3-(4-nitrophenyl)urea] | 1 | 23% | –
CSc1ccc(NC(=O)N(O)C(C)C)cc1 [Compound 15, 1-Hydroxy-1-(1-methylethyl)-3-[4-(methylthio)phenyl]urea] | < 0.1 | – | % Inhibition 1 hour ([3]; 5 mg/Kg, 1 hour post dose): 95%; % Inhibition 2 hour ([3]; 5 mg/Kg, 2 hour post dose): 98%; % Inhibition 4 hour ([3]; 5 mg/Kg, 4 hour post dose): 98% and 96% and 31%; % Inhibition 6 hour ([3]; 5 mg/Kg, 6 hour post dose): 84% and 14%; inhibition at 5 mg/kg ([3]; 1 h, 1 hour post dose, read-out: % Inhibition 1 hour): 100%; inhibition at 5 mg/kg ([3]; 2 h, 2 hour post dose, read-out: % Inhibition 2 hour): 99%
O=C(Nc1ccccc1)N(O)C1CCCCCCC1 [Compound 36, 1-Cyclooctyl-1-hydroxy-3-phenylurea] | 0.2 | 7% | –
COc1ccc(NC(=O)N(O)C2CCCCCCC2)cc1 [Compound 37, 1-Cyclooctyl-1-hydroxy-3-(4-methoxyphenyl)urea] | < 1 | 7% | –
O=C(Nc1ccc([N+](=O)[O-])cc1)N(O)C1CCCCCCC1 [Compound 38, 1-Cyclooctyl-1-hydroxy-3-(4-nitrophenyl)urea] | < 1 | 2% | –
CCC(CC)N(O)C(=O)Nc1ccc([N+](=O)[O-])cc1 [Compound 40, 1-(1-Ethylpropyl)-1-hydroxy-3-(4-nitrophenyl)urea] | 1 | 0% | –
CCOC(=O)CCCCCN(O)C(=O)Nc1ccccc1 [Compound 50, 6-(1-hydroxy-3-phenylureido)-1-hexanoic acid ethyl ester] | < 1 | 6% | –
O=C(Nc1ccccc1)N(O)C1CCCCCC1 [Compound 51, 1-cycloheptyl-1-hydroxy-3-phenylurea] | 0.6 | 22% | –
CCCCCCCCCCCCN(O)C(=O)Nc1ccccc1 [Compound 53, 1-dodecyl-1-hydroxy-3-phenylurea] | < 1 | 1% | –
CCCCCN(O)C(=O)Nc1ccccc1 [Compound 56, 1-hydroxy-1-pentyl-3-phenylurea] | < 0.1 | 6% and 13% | –
CCC(C)N(O)C(=O)Nc1ccccc1 (stereo not drawn) [Compound 69, 1-Hydroxy-1-(1-methylpropyl)-3-phenylurea] | < 1 | 71% | –
CCCC(CC)N(O)C(=O)Nc1ccccc1 (stereo not drawn) [Compound 71, 1-Hydroxy-1-(1-ethylbutyl)-3-phenylurea] | < 1 | 5% | –

Further lines, with some results ahead:

IC50 [1] [µM] | SMILES | %I [2] | other results
0.3 | CC(C)N(O)C(=O)Nc1ccc([N+](=O)[O-])cc1 [Compound 30, 1-hydroxy-1-(1-methylethyl)-3-(4-nitrophenyl)urea] | 13% | –
0.4 | CSc1cccc(NC(=O)N(O)C2CCCCC2)c1 [Compound 32, 1-Cyclohexyl-1-hydroxy-3-[3-(methylthio)phenyl]urea] | 28% | –
< 1 | CCC(CC)N(O)C(=O)Nc1ccc(SC)cc1 [Compound 39, 1-(1-Ethylpropyl)-1-hydroxy-3-[4-(methylthio)phenyl]urea] | 59% | –
< 1 | CC(CCN(O)C(=O)Nc1ccccc1)CC(C)(C)C (stereo not drawn) [Compound 49, 1-hydroxy-3-phenyl-1-(3,5,5-trimethylhexyl)urea] | 13% | –
< 0.1 | CCCCCCCCN(O)C(=O)Nc1ccccc1 [Compound 52, 1-hydroxy-1-octyl-3-phenylurea] | 9% | –
6.4 | CC(C)N(O)C(=O)Nc1ccc(S(C)(=O)=O)cc1 [Compound 62, 1-Hydroxy-1-(1-methylethyl)-3-[4-(methylsulfonyl)phenyl]urea] | 18% | –
4 | CC(C)N(O)C(=O)Nc1ccc([S+](C)[O-])cc1 (stereo not drawn) [Compound 63, 1-Hydroxy-1-(1-methylethyl)-3-[4-(methylsulfinyl)phenyl]urea] | 92% | –
< 1 | Cc1cc(C)c(NC(=O)N(O)C(C)C)cc1C [Compound 67, 1-Hydroxy-1-(1-methylethyl)-3-(2,4,5-trimethylphenyl)urea] | 23% | –
< 1 | CCCC(CCC)N(O)C(=O)Nc1ccccc1 [Compound 70, 1-Hydroxy-1-(1-propylbutyl)-3-phenylurea] | 0% | –
< 10 | CCC(CC)N(O)C(=O)N(C)c1ccccc1 [Compound 74, 1-Hydroxy-1-(1-ethylpropyl)-3-methyl-3-phenylurea] | 7% | –
< 10 | CN(O)C(=O)N(C)c1ccccc1 [Compound 75, 1-Hydroxy-1,3-dimethyl-3-phenylurea] | 0% | –
< 0.1 | CCC(CC)N(O)C(=O)Nc1ccccc1Oc1ccccc1 [Compound 76, 1-Hydroxy-1-(1-ethylpropyl)-3-(2-phenoxyphenyl)urea] | 13% | –
< 0.1 | CCC(CC)N(O)C(=O)Nc1cccc(Oc2ccccc2)c1 [Compound 77, 1-Hydroxy-1-(1-ethylpropyl)-3-(3-phenoxyphenyl)urea] | 7% | –
< 1 | CCC(CC)N(O)C(=O)Nc1ccc(Cc2ccccc2)cc1 [Compound 78, 1-Hydroxy-1-(1-ethylpropyl)-3-(4-benzylphenyl)urea] | 0% | –
